Measured values as given in the supplement of paper PMC10307832.

Key:
Assay in all cases: relative viability (nuclei count vs DMSO), 5 days (fraction); higher = more cells survive
Bortezomib + Vorinostat = compound: CC(C)C[C@H](NC(=O)[C@H](Cc1ccccc1)NC(=O)c1cnccn1)B(O)O [Bortezomib] + O=C(CCCCCCC(=O)Nc1ccccc1)NO [Vorinostat] (partner 1 µM)
Summary of the method: (§1)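 One day after seeding in 1536-well plates, lung cancer cell lines were dosed by pin tool. Dosing was either single-drug or a fixed anchor-drug dose plus five library-drug doses (not always all listed) in √10 steps. After 5 days, nuclei were stained in one fix-and-stain step and counted on 4× images, and relative viability is the nuclei count of treated wells over that of vehicle wells, given as the median of duplicate plates.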

Bortezomib + Pictilisib = compound: CC(C)C[C@H](NC(=O)[C@H](Cc1ccccc1)NC(=O)c1cnccn1)B(O)O [Bortezomib] + CS(=O)(=O)N1CCN(Cc2cc3nc(-c4cccc5[nH]ncc45)nc(N4CCOCC4)c3s2)CC1 [Pictilisib] (partner 1 µM)
Summary of the method: as §1

Bortezomib + Tozasertib = compound: CC(C)C[C@H](NC(=O)[C@H](Cc1ccccc1)NC(=O)c1cnccn1)B(O)O [Bortezomib] + Cc1cc(Nc2cc(N3CCN(C)CC3)nc(Sc3ccc(NC(=O)C4CC4)cc3)n2)n[nH]1 [Tozasertib] (partner 0.1 µM)
Summary of the method: as §1

[1] = compound: CC1=CC(=NN1)NC2=CC(=NC(=N2)/C=C/C3=CC=CC=C3)N4CCN(CC4)C + CC(=O)Nc1cccc(-n2c(=O)n(C3CC3)c(=O)c3c(Nc4ccc(I)cc4F)n(C)c(=O)c(C)c32)c1 [Trametinib] (partner 0.02 µM)
Summary of the method: as §1

Cell Line	relative viability (Bortezomib + Vorinostat; first compound 0.0002 µM)	relative viability (Bortezomib + Vorinostat; first compound 0.000632 µM)	relative viability (Bortezomib + Vorinostat; first compound 0.002 µM)	relative viability (Bortezomib + Vorinostat; first compound 0.006325 µM)	relative viability (Bortezomib + Vorinostat; first compound 0.02 µM)	relative viability (Bortezomib + Pictilisib; first compound 0.0002 µM)	relative viability (Bortezomib + Pictilisib; first compound 0.000632 µM)	relative viability (Bortezomib + Pictilisib; first compound 0.002 µM)	relative viability (Bortezomib + Pictilisib; first compound 0.006325 µM)	relative viability (Bortezomib + Pictilisib; first compound 0.02 µM)	relative viability (Bortezomib + Tozasertib; first compound 0.0002 µM)	relative viability (Bortezomib + Tozasertib; first compound 0.000632 µM)	relative viability (Bortezomib + Tozasertib; first compound 0.002 µM)	relative viability (Bortezomib + Tozasertib; first compound 0.006325 µM)	relative viability (Bortezomib + Tozasertib; first compound 0.02 µM)	relative viability ([1]; first compound 0.08 µM)	relative viability ([1]; first compound 0.253 µM)	relative viability ([1]; first compound 0.8 µM)	relative viability ([1]; first compound 2.53 µM)	relative viability ([1]; first compound 8 µM)
201T	0.964	0.936	0.993	0.916	0.328	0.677	0.707	0.698	0.684	0.541	0.863	0.968	1.01	0.715	0.278	0.713	0.741	0.674	0.664	0.649
A549	–	–	–	–	–	0.507	0.531	0.468	0.049	0.0452	–	–	–	–	–	–	–	–	–	–
A-427	0.845	0.878	0.833	0.185	0.153	0.673	0.626	0.771	0.703	0.175	0.212	0.263	0.193	0.105	0.102	0.632	0.6	0.76	0.451	0.215
ABC-1	0.689	0.415	0.288	0.29	0.312	0.285	0.372	0.292	0.24	0.258	0.162	0.213	0.181	0.16	0.226	–	–	–	–	–
BEN	0.559	0.586	0.558	0.509	0.317	0.542	0.557	0.531	0.366	0.24	0.496	0.554	0.449	0.511	0.362	0.901	1.07	1.02	0.895	0.31
CAL-12T	0.781	0.922	0.691	0.281	0.0995	0.155	0.368	0.427	0.211	0.151	0.322	0.285	0.358	0.193	0.106	0.362	0.292	0.259	0.102	0.104
COR-L23	0.474	0.446	0.192	0.0554	0.0587	0.922	0.777	0.609	0.0347	0.0399	0.198	0.198	0.153	0.049	0.0491	0.549	0.244	0.574	0.102	0.0853
COR-L 105	0.846	0.306	0.824	0.276	0.271	0.377	0.324	0.389	0.322	0.326	0.357	0.345	0.216	0.254	0.19	0.427	0.453	0.416	0.276	0.27
Calu-6	–	–	–	–	–	0.829	0.925	0.726	0.102	0.0777	–	–	–	–	–	–	–	–	–	–
ChaGo-K-1	0.709	0.753	0.827	0.441	0.162	–	–	0.707	0.29	0.207	0.233	0.207	0.248	0.165	0.155	0.937	0.887	0.807	0.753	0.19
EBC-1	–	–	–	–	–	0.415	0.408	0.177	0.0912	0.0987	–	–	–	–	–	–	–	–	–	–
EKVX	0.68	0.805	0.65	0.518	0.198	0.429	0.426	0.463	0.33	0.0746	0.419	0.437	0.342	0.2	0.105	0.387	0.368	0.394	0.352	0.137
EMC-BAC-2	0.402	0.467	0.409	0.155	0.143	0.523	0.504	0.544	0.476	0.158	0.249	0.274	0.403	0.171	0.174	0.899	0.698	0.938	0.691	0.283
EPLC-272H	0.333	0.4	0.0774	0.0603	0.0567	–	–	0.3	0.242	0.15	0.297	0.258	0.221	0.1	0.101	0.251	0.261	0.292	0.213	0.126
H3255	0.811	0.827	0.748	0.253	0.244	0.58	0.482	0.406	0.192	0.142	0.783	0.589	0.564	0.184	0.243	0.636	0.45	0.665	0.608	0.271
HARA	0.512	0.672	0.175	0.0466	0.0668	0.479	0.529	0.481	0.0462	0.0659	0.0998	0.0941	0.0961	0.0503	0.061	0.824	0.448	0.65	0.148	0.0692
HCC-15	0.864	0.892	0.729	0.107	0.094	0.649	0.745	0.733	0.396	0.111	0.372	0.45	0.405	0.0716	0.0808	0.371	0.378	0.396	0.278	0.0994
HCC-44	1.07	1.07	1.1	0.557	0.328	0.581	0.575	0.554	0.464	0.133	0.887	–	0.305	0.161	0.221	1.04	1.06	1.04	1.09	0.677
HCC-78	0.453	0.447	0.263	0.281	0.276	0.183	0.23	0.207	0.21	0.193	0.488	0.331	0.41	0.236	0.209	0.763	0.605	0.877	0.647	0.324
